The record followed here is patent US10766888B1, “HMOX1 inducers” (Mitobridge Inc., priority 2019, dated 2020).

A short description of one data set: Kinetic solubility. It is filed as physicochemical. The following applies: Dulbecco's phosphate buffer saline (DPBS), aqueous buffer, kinetic from dmso stock, DPBS pH 7.4, 25° C., 200 μM test compound. The protocol:
Example 144. Kinetic Solubility
10 μL of 10 mM DMSO stock solution were aliquotted to 490 μL of DMSO solution and separately 490 μL of Dulbecco's phosphate buffer saline, DPBS, pH 7.4 solution in 1.2 mL 96-well plates in duplicate. Final concentration was 200 μM of the test compound. Samples were incubated at 25° C. with shaking at 200 rpm for 16 h. Samples were centrifuged at 3500 rpm for 20 min at 25° C., and supernatant was submitted for HPLC analysis.
Kinetic solubility was measured using the following equation: […]

The subject of data set [1] is Human Heme Oxygenase-1 (HMOX-1). As to the kind of experiment: ELISA assay to measure human heme oxygenase-1 (HMOX-1) in HepG2 lysate. The following applies: human HMOX1 protein level in HepG2 lysate; * = average of 2 or more EC50 determinations; NA = Not Active; read-out: EC50. It is filed as cell-based. A digest of the protocol:
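HO-1 protein levels were read as fold change over DMSO-treated cells, with EC50 derived from these values. Quantitation used a chemiluminescent streptavidin-HRP capture ELISA, calibrated with an HO-1 standard series starting at 20 ng/ml, run at 20 °C. Samples were HepG2 lysates made with Triton X100/EDTA buffer and diluted 1:20.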
For orientation: In an ELISA, binding on a coated surface is turned into a signal by an enzyme label.

In brackets after ≈: the same amount, converted by molar mass.

A word on the solubility: it is how much of the substance goes into solution per volume. Usually EC50 stands for the midpoint of the concentration-response curve. `COCCNC(=O)c1ccc2c(c1)nc(Nc1nc3cc(F)ccc3o1)n2C` [Example 67, 2-((5-fluorobenzo[d]oxazol-2-yl)amino)-N-(2-methoxyethyl)-1-methyl-1H-benzo[d]imidazole-5-carboxamide] showed a solubility at 16 h in the data set “Kinetic solubility” of less than 5 µM. Besides, in data set [1], the half-maximal effective concentration (EC50) turned out to be 910 nM.

For `COCCNC(=O)c1cc2nc(Nc3nc4ccc(OC(F)(F)F)cc4o3)n(C)c2cc1F` [Example 71, 6-fluoro-N-(2-methoxyethyl)-1-methyl-2-((6-(trifluoromethoxy)benzo[d]oxazol-2-yl)amino)-1H-benzo[d]imidazole-5-carboxamide], in “Kinetic solubility”, the solubility at 16 h is 0.3 µM (≈ 0.14 µg/mL). Besides, in data set [1], the EC50 came out at 730 nM.

Regarding `Cn1c(Nc2nc3ccccc3o2)nc2cc(C(=O)NCCOCCO)c(F)cc21` [Example 72, 2-(benzo[d]oxazol-2-ylamino)-6-fluoro-N-(2-(2-hydroxyethoxy)ethyl)-1-methyl-1H-benzo[d]imidazole-5-carboxamide], in the data set “Kinetic solubility”, the solubility at 16 h turned out to be 2.7 µM (≈ 1.12 µg/mL). The EC50 in data set [1] was 1100 nM.

On to `O=C(O)c1ccc2c(c1)nc(Nc1nc3ccc(OC(F)(F)F)cc3o1)n2C1CCOCC1` [Example 79, 1-(tetrahydro-2H-pyran-4-yl)-2-((6-(trifluoromethoxy)benzo[d]oxazol-2-yl)amino)-1H-benzo[d]imidazole-5-carboxylic acid], for which, in “Kinetic solubility”, the solubility at 16 h is 12.4 µM (≈ 5.73 µg/mL). In addition, the concentration for a half-maximal effect (EC50) in data set [1] is 4000 nM.

Consider `Cn1c(Nc2nc3ccc(Br)cc3o2)nc2cc(C(=O)O)ccc21` [Example 91, 2-((6-bromobenzo[d]oxazol-2-yl)amino)-1-methyl-1H-benzo[d]imidazole-5-carboxylic acid], for which, in “Kinetic solubility”, the solubility at 16 h is 2.6 µM (≈ 1.01 µg/mL). Further, the concentration for a half-maximal effect (EC50) in data set [1] is 2500 nM.

In turn, `COc1ccc2nc(Nc3nc4cc(C(=O)NCCO)ccc4n3C)oc2c1` [Example 92, N-(2-hydroxyethyl)-2-((6-methoxybenzo[d]oxazol-2-yl)amino)-1-methyl-1H-benzo[d]imidazole-5-carboxamide] displayed a solubility at 16 h in “Kinetic solubility” of 3.5 µM (≈ 1.33 µg/mL). Besides, in data set [1], the half-maximal effective concentration (EC50) is 1400 nM.

Compound `COCCNC(=O)c1ccc2c(c1)nc(Nc1nc3ccc(OC(F)(F)F)cc3o1)n2CC1(O)COC1` [Example 94, 1-((3-hydroxyoxetan-3-yl)methyl)-N-(2-methoxyethyl)-2-((6-(trifluoromethoxy)benzo[d]oxazol-2-yl)amino)-1H-benzo[d]imidazole-5-carboxamide] yielded a solubility at 16 h in “Kinetic solubility” of 0.3 µM (≈ 0.156 µg/mL). Further, the EC50 in data set [1] was found to be 1300 nM.

`Cn1c(Nc2nc3ccc(Cl)cc3o2)nc2cc(C(=O)NCCO)ccc21` [Example 97, 2-((6-chlorobenzo[d]oxazol-2-yl)amino)-N-(2-hydroxyethyl)-1-methyl-1H-benzo[d]imidazole-5-carboxamide]: the solubility at 16 h in “Kinetic solubility” was less than 5 µM. Also, in data set [1], the concentration for a half-maximal effect (EC50) amounted to 1400 nM.

In the data set “Kinetic solubility”, `COCCNC(=O)c1ccc2c(c1)nc(Nc1nc3ccc(OCC(F)(F)F)cc3o1)n2C` [Example 99, N-(2-methoxyethyl)-1-methyl-2-((6-(2,2,2-trifluoroethoxy)benzo[d]oxazol-2-yl)amino)-1H-benzo[d]imidazole-5-carboxamide] gave a solubility at 16 h of 0.4 µM (≈ 0.185 µg/mL). Further, the concentration for a half-maximal effect (EC50) in data set [1] came out at 920 nM.

For `Cn1c(Nc2nc3ccc(OCC(F)(F)F)cc3o2)nc2cc(C(=O)NCCO)ccc21` [Example 100, N-(2-hydroxyethyl)-1-methyl-2-((6-(2,2,2-trifluoroethoxy)benzo[d]oxazol-2-yl)amino)-1H-benzo[d]imidazole-5-carboxamide], the solubility at 16 h in “Kinetic solubility” was determined as 5.3 µM (≈ 2.38 µg/mL). In addition, the EC50 in data set [1] came out at 1200 nM.

Take `COCCNC(=O)c1ccc2c(c1)nc(Nc1nc3ccc(OCCO)cc3o1)n2C` [Example 102, 2-((6-(2-hydroxyethoxy)benzo[d]oxazol-2-yl)amino)-N-(2-methoxyethyl)-1-methyl-1H-benzo[d]imidazole-5-carboxamide]: the solubility at 16 h in “Kinetic solubility” amounted to 5.3 µM (≈ 2.25 µg/mL). In data set [1], the concentration giving a half-maximal response (EC50) was 1300 nM.
